Laboratory results published in patent US20250011285A1, “CYP11A1 INHIBITORS” (ORION CORPORATION, priority 2021, published 2025).

The compounds below were run against T1, CYP11A1 (Homo sapiens, UniProt P05108) (assay: CYP11A1 inhibition, isocaproic acid release assay (IARA) in H295R cells). Settings: human H295R adrenocortical carcinoma cells treated three days, 3 nM [24,25-3H]-labelled cholesterol, 1% DMSO; read-out: IC50 on CYP11A1 inhibition (Group).
T1 construct: human H295R adrenocortical carcinoma cell line was used as source of enzyme; endogenous in cells; host or cells: H295R human adrenocortical carcinoma cells
T1 sequence (P05108 40-521): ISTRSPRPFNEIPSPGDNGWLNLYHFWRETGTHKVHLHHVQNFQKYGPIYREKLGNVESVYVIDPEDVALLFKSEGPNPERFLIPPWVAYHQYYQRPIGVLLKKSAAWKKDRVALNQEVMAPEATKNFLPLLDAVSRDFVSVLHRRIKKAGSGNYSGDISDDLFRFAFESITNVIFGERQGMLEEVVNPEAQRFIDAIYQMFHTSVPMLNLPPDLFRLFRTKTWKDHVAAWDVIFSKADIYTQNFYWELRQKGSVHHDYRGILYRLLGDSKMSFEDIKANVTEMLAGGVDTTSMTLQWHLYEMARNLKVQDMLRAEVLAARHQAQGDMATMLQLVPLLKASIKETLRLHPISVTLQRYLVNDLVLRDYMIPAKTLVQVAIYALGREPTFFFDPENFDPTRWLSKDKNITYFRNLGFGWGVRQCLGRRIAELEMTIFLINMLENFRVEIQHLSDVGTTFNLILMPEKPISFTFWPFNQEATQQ
Assay type: cell-based
Procedure: The ability of the test compounds to inhibit conversion of cholesterol to pregnenolone and isocaproic acid was measured by modification of isocaproic acid release assay (IARA) described by Ruangwises et al. (Biology of Reproduction 1991; 45(1):143-50) except that human H295R adrenocortical carcinoma cell line was used as source of enzyme and extraction was done with dextran-coated charcoal suspension (Isomaa, V. et al., Endocrinology 1982; 111(3):833-843). […] To determine the half maximal inhibitory concentration (IC50) of the test compounds on CYP11A1 inhibition, the cells were treated for three days with increasing concentrations of the test compounds in the presence of 3 nM [24,25-3H]-labelled cholesterol (American Radiolabelled Chemicals).
The final DMSO concentration was 1%. Cell culture medium was extracted with dextran-coated charcoal suspension and the radiolabelled isocaproic acid was determined by mixing 100 μl of supernatant fraction in 200 μl of scintillation fluid (OptiPhase SuperMix, Perkin Elmer). Radioactivity was measured using a Microbeta scintillation counter (1450 MicroBeta Trilux, Wallac). All the test compounds were studied at 10 concentrations in duplicates.

IC50 | SMILES
151 to 350 nM | COc1cc(CN2Cc3ccccc3C2)ccc1OCc1ccc(C(=O)N(C)CCOC(C)=O)cc1 [Compound 36, 2-(4-((4-(Isoindolin-2-ylmethyl)-2-methoxyphenoxy)methyl)-N-methyl-benzamido)ethyl acetate]
151 to 350 nM | CCC(=O)N1CCC(COc2ccc(CN3Cc4ccccc4C3)cc2C(C)=O)CC1 [Compound 49, 1-(4-((2-Acetyl-4-(isoindolin-2-ylmethyl)phenoxy)methyl)piperidin-1-yl)propan-1-one]
< 150 nM | Cn1ncc2c(CN3Cc4ccccc4C3)ccc(OCC3CCN(S(C)(=O)=O)CC3)c21 [Compound 47, 4-(Isoindolin-2-ylmethyl)-1-methyl-7-((1-(methylsulfonyl)piperidin-4-yl)-methoxy)-1H-indazole]
351 to 1500 nM | CN(C)C(=O)c1ccc(COc2ccc(CN3Cc4ccccc4C3)c(F)c2)cc1 [Compound 24, 4-((3-Fluoro-4-(isoindolin-2-ylmethyl)phenoxy)methyl)-N,N-dimethylbenzamide]
< 150 nM | CS(=O)(=O)N1CCC(COc2ccc(CN3Cc4ccccc4C3)c3cccnc23)CC1 [Compound 51, 5-(Isoindolin-2-ylmethyl)-8-((1-(methylsulfonyl)piperidin-4-yl)methoxy)-quinoline]
351 to 1500 nM | CN(C)C(=O)c1ccc(COc2ccc(CN3Cc4ccccc4C3)cc2N)cc1 [Compound 52, 4-((2-Amino-4-(isoindolin-2-ylmethyl)phenoxy)methyl)-N,N-dimethyl-benzamide]
< 150 nM | CCS(=O)(=O)c1ccc(COc2ccc(CN3Cc4ccccc4C3)cc2C(C)=O)cc1 [Compound 43, 1-(2-((4-(Ethylsulfonyl)benzyl)oxy)-5-(isoindolin-2-ylmethyl)phenyl)ethan-1-one]
< 150 nM | CN(C)C(=O)c1ccc(COc2ccc(CN3Cc4ccccc4C3)cc2[N+](=O)[O-])cc1 [Compound 40, 4-((4-(isoindolin-2-ylmethyl)-2-nitrophenoxy)methyl)-N,N-dimethylbenzamide]
151 to 350 nM | CCOc1cc(CN2Cc3ccccc3C2)ccc1OCc1ccc(C(=O)N(C)C)cc1 [Compound 8, 4-((2-Ethoxy-4-(isoindolin-2-ylmethyl)phenoxy)methyl)-N,N-dimethyl-benzamide]
